Like-named read-outs stand apart in the source and are kept apart here.
Key:
CD8^+ T cells [1] = assay type: cell-based, BALB/c mice; details: intracellular IFN-γ
CD8^+ T cells [2] = assay: Intracellular cytokine staining for IFN-γ, IL-2 and TNF-α; assay type: cell-based, BALB/c mice; details: HIV-1BaL Env-immunized mice (DNA-primed/rAd-boosted); peptide stimulation

**Q.** With IGPGRAFYTT [PT10] as the sequence, how does the “recall response to peptide (in words)” value (CD8^+ T cells [1]; mice immunized with the HIV-1IIIB vaccine) read?
**A.** The value was “failed to respond”.

**Q.** IGPGRAFYA [PA9] was tested. Which “proportion of triple-positive (IFN-γ, IL-2, TNF-α) CD8^+ T cells” value (CD8^+ T cells [2]) did it give?
**A.** The value was 46%.

**Q.** How did the “recall response to peptide (in words)” value (CD8^+ T cells [1]; mice primed with HIV-1BaL DNA and boosted with rAd) turn out when RGPGRAFVTI [P18I10, reference compound] was run?
**A.** The value was “did not respond”.

From article PMC2858449 (Journal of immunology (Baltimore, Md. : 1950), 2009)
